From publication doi:10.1101/2025.03.14.643404, “A Bivalent Molecular Glue Linking Lysine Acetyltransferases to Oncogene-induced Cell Death” (bioRxiv, 2025)

How the values were obtained:
[1] = test system: SUDHL5; assay: Cell viability, 7 days compound treatment (Cell Titer-Glo), SUDHL5; format: cell-based; settings: Homo sapiens, SU-DHL-5, 168 h; SUDHL5, 7 days; read-out: IC50 of antiproliferation
Method: Fifteen thousand cells were seeded in 100 μl of media per well of a U-bottom 96-well plate and treated with digitally dispensed drugs (Tecan D300e) for the indicated times and doses. After 96 hours, plates were centrifuged for 750 rpm for 3 minutes, and old media was exchanged for 100 μl of fresh media. Drug treatment was then repeated at the indicated doses. 72 hours following media change, cells were transferred to 96 well flat-bottom opaque plates. Viability was measured by adding 25 μL Cell Titer-Glo reagent (Promega G7570) to each well and luminescence was measured (BMG Labtech Pherastar FS). The background luminescence was subtracted, and the signal was normalized to DMSO-treated cells. IC50 measurements on cell lines were calculated using at least three biological replicates by separate cell passages. Fit of dose–response curves to data and statistical analysis was performed using GraphPad PRISM using the four-parameter log(inhibitor) vs response function.

[2] = test system: CBP^BD-BCL6^BTB; assay: TR-FRET ternary assay CBPBD-BCL6BTB; format: binding, human
Method: 10 μL reactions containing 10 nM 6x-His- p300^BD or 6x-His-CBP^BD, 200 nM BiotinylatedAvi-BCL6^BTB, 20 nM streptavidin-FITC (SA1001, Thermo), and 1:400 anti-6x-His-terbium (PerkinElmer 61HI2TLF) in buffer containing 20 mM HEPES pH 7.5, 150 mM NaCl, 0.1% BSA, 0.1% NP-40, and 1 mM TCEP were plated in low-volume 384 well plates. Drugs were digitally dispensed (Tecan D300e) into protein-containing wells, and the plate was allowed to incubate in the dark for 1 hour at room temperature. Emission at 490 nm (terbium) and 520 nm (FITC) was measured on a PHERAstar FS plate reader (BMG Labtech) upon excitation with 337 nm. The ratio of signal at 520 nm to 490 nm was calculated and normalized to DMSO-treated protein.

[3] = molecular target: T1, p300 (Homo sapiens, UniProt Q09472); assay: Global proteome profiling in SUDHL5, p300 abundance; format: cell-based; settings: SUDHL5, 10 nM, 24 hours
T1 construct: endogenous in cells; host or cells: SUDHL5
Method: (§1) SUDHL5 cells (6M cells in 6 mL RPMI-1640 media supplemented with 10% FBS and 1x pen-strep) were treated with 0.1% DMSO, 10 nM TCIP3, 10 nM Neg1, 10 nM Neg2, or 250 nM dCBP1 (1000x stocks in DMSO for final 0.1% DMSO concentration) in 3 biologically independent replicates. The cells were washed twice with TBS (50 mM Tris, pH 8.5, and 150 mM NaCl) and then stored at −80 °C until use.
(§2) Lysis was performed by first thermally denaturing the samples in residual wash buffer for 5 min at 95 °C. Fresh Lysis Buffer (8 M urea, 150 mM NaCl, and 100 mM HEPES, pH 8.0, in MS-grade water) was then added, and the lysates were homogenized using needle ultrasonication and then normalized to 30 μg of 2 mg/mL by diluting with Lysis Buffer via a Bradford protein concentration assay (Bio-Rad 5000006) in technical duplicates. […]
(§3) Samples were then desalted using SOLAμ SPE HRP Peptide Desalting columns (Thermo 60209–001) with a Positive Pressure Manifold and all MS-grade reagents. […] The samples were then reconstituted in 0.1% FA in water and then analyzed by LC-MS/MS (see below).
(§4) The reconstituted desalted peptides were then analyzed using a nanoElute 2 UHPLC (Bruker Daltonics, Bremen, Germany) coupled to a timsTOF HT (Bruker Daltonics, Bremen, Germany) via a CaptiveSpray nano-electrospray source. […]

[4] = molecular target: T2, CBP (Homo sapiens, UniProt Q92793); assay: Global proteome profiling in SUDHL5, CBP abundance; format: cell-based; settings: SUDHL5, 10 nM, 24 hours
T2 construct: endogenous in cells; host or cells: SUDHL5
Method: as §1, §2, §3, §4

T2 sequence (Q92793 whole entry): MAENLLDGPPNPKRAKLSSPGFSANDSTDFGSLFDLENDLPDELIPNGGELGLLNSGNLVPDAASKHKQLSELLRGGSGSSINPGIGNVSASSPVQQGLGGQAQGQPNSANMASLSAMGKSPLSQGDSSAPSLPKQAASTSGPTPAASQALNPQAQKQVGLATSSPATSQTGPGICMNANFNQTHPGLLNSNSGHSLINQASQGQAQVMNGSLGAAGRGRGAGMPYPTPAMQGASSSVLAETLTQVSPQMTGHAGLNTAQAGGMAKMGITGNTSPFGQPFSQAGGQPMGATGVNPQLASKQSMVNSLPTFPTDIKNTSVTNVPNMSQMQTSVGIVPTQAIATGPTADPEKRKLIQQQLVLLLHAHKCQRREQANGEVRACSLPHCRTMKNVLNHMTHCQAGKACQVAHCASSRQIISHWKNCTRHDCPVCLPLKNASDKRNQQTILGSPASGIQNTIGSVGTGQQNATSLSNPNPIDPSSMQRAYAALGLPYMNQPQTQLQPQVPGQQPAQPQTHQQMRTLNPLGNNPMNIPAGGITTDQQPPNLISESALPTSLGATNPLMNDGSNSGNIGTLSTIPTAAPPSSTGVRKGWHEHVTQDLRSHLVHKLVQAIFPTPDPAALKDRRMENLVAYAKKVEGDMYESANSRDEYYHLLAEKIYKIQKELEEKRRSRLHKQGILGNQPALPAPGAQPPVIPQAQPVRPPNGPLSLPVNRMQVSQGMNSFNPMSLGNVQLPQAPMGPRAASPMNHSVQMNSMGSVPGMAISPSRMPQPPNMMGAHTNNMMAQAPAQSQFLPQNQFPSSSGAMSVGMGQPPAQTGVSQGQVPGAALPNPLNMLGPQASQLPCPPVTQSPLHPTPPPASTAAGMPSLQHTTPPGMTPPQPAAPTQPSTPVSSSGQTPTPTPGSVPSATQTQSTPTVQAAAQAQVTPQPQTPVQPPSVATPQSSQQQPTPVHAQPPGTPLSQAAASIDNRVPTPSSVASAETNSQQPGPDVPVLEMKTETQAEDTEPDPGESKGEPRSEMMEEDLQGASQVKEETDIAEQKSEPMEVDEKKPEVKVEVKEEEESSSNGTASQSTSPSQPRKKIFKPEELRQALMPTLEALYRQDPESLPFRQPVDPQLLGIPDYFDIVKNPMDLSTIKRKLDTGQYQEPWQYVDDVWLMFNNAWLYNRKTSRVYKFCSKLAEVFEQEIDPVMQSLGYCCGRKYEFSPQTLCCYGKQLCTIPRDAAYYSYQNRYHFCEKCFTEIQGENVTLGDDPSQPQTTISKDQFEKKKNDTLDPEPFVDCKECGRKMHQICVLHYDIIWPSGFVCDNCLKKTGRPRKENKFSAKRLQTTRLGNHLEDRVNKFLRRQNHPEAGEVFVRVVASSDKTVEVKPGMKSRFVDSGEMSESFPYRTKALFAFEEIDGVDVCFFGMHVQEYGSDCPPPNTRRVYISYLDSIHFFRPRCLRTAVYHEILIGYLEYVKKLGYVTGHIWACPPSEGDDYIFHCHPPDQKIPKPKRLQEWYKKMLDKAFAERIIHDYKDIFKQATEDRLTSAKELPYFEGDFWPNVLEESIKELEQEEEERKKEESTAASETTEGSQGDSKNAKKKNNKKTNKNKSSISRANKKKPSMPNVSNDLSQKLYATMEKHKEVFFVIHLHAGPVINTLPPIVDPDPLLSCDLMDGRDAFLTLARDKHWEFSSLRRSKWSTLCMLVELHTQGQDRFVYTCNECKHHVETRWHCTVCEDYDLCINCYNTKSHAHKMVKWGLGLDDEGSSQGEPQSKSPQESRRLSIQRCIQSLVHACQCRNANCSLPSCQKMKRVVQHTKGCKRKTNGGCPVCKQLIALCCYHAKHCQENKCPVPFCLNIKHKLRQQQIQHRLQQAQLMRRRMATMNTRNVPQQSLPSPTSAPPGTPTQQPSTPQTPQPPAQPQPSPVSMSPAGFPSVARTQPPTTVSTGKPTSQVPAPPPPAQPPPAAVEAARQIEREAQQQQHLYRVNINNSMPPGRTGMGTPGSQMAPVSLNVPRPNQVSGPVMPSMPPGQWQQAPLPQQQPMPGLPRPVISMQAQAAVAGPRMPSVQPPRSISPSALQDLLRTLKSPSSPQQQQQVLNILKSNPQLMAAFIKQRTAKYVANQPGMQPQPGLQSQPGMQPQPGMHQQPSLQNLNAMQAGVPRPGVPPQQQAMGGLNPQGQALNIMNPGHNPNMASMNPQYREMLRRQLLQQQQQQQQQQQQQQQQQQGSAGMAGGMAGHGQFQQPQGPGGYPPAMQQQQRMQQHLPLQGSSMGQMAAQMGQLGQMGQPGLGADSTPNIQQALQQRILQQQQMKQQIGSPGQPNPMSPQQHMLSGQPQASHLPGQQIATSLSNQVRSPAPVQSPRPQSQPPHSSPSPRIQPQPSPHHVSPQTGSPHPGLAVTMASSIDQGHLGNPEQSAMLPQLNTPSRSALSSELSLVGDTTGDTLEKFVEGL
T1 sequence (Q09472 2-2414 limits assumed, other chains not shown): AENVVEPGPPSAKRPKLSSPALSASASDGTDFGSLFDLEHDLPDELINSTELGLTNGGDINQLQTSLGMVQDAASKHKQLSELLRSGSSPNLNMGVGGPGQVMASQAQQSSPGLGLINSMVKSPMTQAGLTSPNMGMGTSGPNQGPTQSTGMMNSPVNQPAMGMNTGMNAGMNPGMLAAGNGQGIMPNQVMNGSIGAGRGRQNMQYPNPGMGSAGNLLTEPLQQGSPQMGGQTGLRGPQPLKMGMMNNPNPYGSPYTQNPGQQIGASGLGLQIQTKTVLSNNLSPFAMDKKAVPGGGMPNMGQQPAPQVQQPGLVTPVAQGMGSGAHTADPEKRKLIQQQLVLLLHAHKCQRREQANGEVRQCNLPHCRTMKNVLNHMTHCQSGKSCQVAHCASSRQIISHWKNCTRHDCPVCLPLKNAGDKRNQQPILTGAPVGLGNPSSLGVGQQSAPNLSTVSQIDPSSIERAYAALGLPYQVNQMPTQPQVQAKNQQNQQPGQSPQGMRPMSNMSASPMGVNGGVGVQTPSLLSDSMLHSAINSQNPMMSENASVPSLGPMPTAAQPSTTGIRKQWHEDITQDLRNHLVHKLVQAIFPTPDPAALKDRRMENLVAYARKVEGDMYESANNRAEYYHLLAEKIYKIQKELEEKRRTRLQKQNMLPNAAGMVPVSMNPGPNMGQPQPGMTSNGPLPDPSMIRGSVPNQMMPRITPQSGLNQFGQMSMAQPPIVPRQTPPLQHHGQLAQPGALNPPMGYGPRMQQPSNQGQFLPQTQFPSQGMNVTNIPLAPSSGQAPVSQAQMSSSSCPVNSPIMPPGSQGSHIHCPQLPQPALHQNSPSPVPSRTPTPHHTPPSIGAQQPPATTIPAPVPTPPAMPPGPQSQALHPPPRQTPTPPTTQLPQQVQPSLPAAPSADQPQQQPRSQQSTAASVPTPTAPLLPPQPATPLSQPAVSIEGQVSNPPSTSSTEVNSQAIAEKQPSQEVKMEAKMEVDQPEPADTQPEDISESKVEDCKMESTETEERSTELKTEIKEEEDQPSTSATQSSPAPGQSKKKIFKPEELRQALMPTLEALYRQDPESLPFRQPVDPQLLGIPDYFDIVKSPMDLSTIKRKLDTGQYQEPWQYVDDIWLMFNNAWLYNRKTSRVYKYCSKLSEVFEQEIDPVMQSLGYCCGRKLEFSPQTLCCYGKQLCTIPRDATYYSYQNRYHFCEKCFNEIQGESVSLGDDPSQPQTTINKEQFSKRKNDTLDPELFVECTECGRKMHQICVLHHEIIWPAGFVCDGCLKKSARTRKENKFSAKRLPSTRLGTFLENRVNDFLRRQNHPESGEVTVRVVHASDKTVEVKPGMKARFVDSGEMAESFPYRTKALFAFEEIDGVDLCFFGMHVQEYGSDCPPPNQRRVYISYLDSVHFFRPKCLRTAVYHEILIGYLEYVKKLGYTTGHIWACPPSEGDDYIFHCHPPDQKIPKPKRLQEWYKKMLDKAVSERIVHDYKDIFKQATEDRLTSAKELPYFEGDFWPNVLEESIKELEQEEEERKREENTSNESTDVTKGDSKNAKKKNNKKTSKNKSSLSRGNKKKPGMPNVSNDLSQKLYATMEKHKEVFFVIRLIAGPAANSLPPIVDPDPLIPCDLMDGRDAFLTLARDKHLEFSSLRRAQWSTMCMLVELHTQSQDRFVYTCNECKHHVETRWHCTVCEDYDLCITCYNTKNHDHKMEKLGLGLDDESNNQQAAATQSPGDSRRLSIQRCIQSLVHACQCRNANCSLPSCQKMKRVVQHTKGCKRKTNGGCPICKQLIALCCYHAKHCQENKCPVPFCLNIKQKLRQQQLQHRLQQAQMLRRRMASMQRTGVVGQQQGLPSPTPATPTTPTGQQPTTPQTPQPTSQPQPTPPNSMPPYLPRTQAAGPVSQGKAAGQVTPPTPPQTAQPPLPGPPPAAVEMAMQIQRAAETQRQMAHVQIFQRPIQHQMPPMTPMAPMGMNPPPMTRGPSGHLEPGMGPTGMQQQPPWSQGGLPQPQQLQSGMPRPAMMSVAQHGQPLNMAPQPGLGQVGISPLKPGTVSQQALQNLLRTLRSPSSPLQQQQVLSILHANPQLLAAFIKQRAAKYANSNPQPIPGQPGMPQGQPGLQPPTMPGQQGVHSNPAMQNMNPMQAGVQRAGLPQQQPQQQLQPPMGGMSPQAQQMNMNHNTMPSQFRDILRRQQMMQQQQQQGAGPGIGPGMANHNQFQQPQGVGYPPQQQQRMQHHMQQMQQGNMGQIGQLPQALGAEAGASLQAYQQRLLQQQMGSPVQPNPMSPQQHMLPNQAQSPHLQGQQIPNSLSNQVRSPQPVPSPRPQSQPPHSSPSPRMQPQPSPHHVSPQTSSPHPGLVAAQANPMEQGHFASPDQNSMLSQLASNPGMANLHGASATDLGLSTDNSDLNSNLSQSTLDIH

## CNC(=O)COc1cc2cc(Nc3nc(N4CCC(C(=O)N5CCN(CCC(=O)N6CCC(n7nc(N8CCCc9cc(-c%10cnn(C)c%10)c(C(F)F)cc98)c8c7CCN(C(=O)NC)C8)CC6)CC5)CC4)ncc3Cl)cc(OC)c2n(C)c1=O [TCIP3]
[1]
  IC50: 1.2 nM
[2]
  TR-FRET signal AUC, times higher than NEG1: 16 times
  TR-FRET signal AUC, times higher than NEG2: 25 times
[3]
  p300 protein abundance log2(fold change): 0.37
[4]
  CBP protein abundance log2(fold change): 0.58
